Marks after values point to notes of the source that are not given here.
Columns and labels:
[1] = tested on: Human glioblastoma cell line LN-18; assay: LN18 cell proliferation combined with radiotherapy (CTG assay); format: cell-based; details: Homo sapiens, LN-18, light or radiation study; LN18 cells, 1 Gy irradiation 1 h after compound, 6 days, CTG;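 note: readout is CTG luminescence proliferation not KAP1 phosphorylation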
Method: 5 Test of the Inhibitory Activities of the Compounds of the Present Disclosure Combined with Radiotherapy on LN18 Cell Proliferation
• Cell: Human glioblastoma cell line LN-18
5.2 Experimental Procedures
• (1) Cell inoculation • 1) The cell culture fluid was preheated at 37° C. • 2) A complete culture medium of LN18 cells was prepared, at a ratio of DMEM medium:FBS=95:5 (V/V). • 3) Cells were digested with trypsin, collected to serve as a cell suspension, and counted, the cell suspension was then added into a 96-well plate at 1500 cells/well and 100 μL of cell fluid/well, and three parallel wells were set. • 4) After inoculated in the plate, the cells were cultured overnight under the condition of 37° C. and 5% CO2. • (2) Compound addition and incubation • 1) AZD1390 and tested compounds, respectively, were sequentially diluted 5 times with DMSO, starting from the concentration of 10 mM and yielding the concentrations of 10, 2, 0.4, 0.08, 0.016, 0.0032, 0.00064, 0.000128, and 0.0000256 mM in turn. The compound solutions at the above concentrations were diluted 5000 times with the complete culture medium. The final 2× concentrations were in order 2000, 400, 80, 16, 3.2, 0.64, 0.128, 0.0256, and 0.00512 nM. The vehicle control was 0.02% DMSO culture fluid. • 2) A complete culture medium containing 100 μL of the compound solution was added to each well, and the final concentrations of the compounds in the wells were in order 1000, 200, 40, 8, 1.6, 0.32, 0.064, 0.0128, and 0.00256 nM. The 0.01% DMSO culture fluid was contained in the vehicle control well. After incubated with compound for 1 h, the cells were irradiated at a dose of 1 Gy. • 3) After irradiation, the plate was put into an incubator and incubated under the condition of 37° C. and 5% CO2 for 6 days. Then detection was performed by adopting CTG assay (100 μL of liquid from each well was sucked out and discarded, and 50 μL of CTG reagent was added to each well, and incubated at room temperature for 30 min, and the luminescence intensity was detected). • (3) Data analysis • 1) The Luminescence signal (RLU) of each well was detected. • 2) Proliferation inhibitory activity was calculated according to the formula: % inhibitory activity=RLUtreatment/RLUAvg(Vehicle)*100. 5.3 the Inhibitory Activities of Compounds of the Present Disclosure Combined with Radiotherapy on LN18 Cell Proliferation

[2] = tested on: subcutaneous xenograft tumor of human non-small cell lung cancer cell line NCI-H441; assay: NCI-H441 subcutaneous xenograft, combined with irinotecan liposome injection; format: in vivo, NU/NU mice; details: for D 17 TGI / D 17 TV (MEAN ± SD) / Tumor weight / Tumor weight inhibitory rate: compound 25 mg/kg intragastric + irinotecan liposome 2.5 mg/kg ip; for D 17 TGI / D 17 TV (MEAN ± SD): day 17; for Tumor weight / Tumor weight inhibitory rate: end of test d17
Method: 6 Efficacy Test of the Compounds of the Present Disclosure Combined with Irinotecan Liposome Injection on Inhibiting the Growth of Subcutaneous Xenograft Tumor of Human Non-Small Cell Lung Cancer Cell Line NCI-H441
6.1 Experimental Animals: NU/NU Mice, SPF, Female, 20 to 30 g.
Irinotecan liposome injection (HE072), 43 mg:10 mL, milky white liquid, batch No. B37191202, provided by Preparation Research Institute 2 from CSPC Zhongqi Pharmaceutical Technology (Shijiazhuang) Co., Ltd., diluted to an appropriate concentration with 5% glucose injection while testing.
NCI-H441 cells, provided by Nanjing Kebai Biotechnology Co., Ltd.; 1640 culture medium (gibco Company):fetal bovine serum (Lanzhou Bailing)=90%:10%, 37° C., 5% CO2.
NU/NU nude mice were subcutaneously inoculated with NCI-H441 human non-small cell lung cancer cells. When the mean tumor volume reached 170 to 172 mm^3 (15 days after inoculation), the animals were evenly divided into groups according to the tumor volume (d0), with 6 mice in each group. 2.5 mg/kg of HE072 was administered intraperitoneally once a week for 2 times. Vehicle control, 25 mg/kg of A-193, 25 mg/kg of A-182, and 25 mg/kg of AZD1390 were administered intragastrically once a day, from Monday to Thursday every week except Friday to Sunday, for 2 weeks (8 times). The tumor volume was measured twice a week, the body weight of mouse was weighed every day, and the data were recorded. The tumor volume (TV) was calculated according to the formula: TV=½×a×b2, wherein a and b represent the long and short diameters of tumor, respectively. Tumor growth inhibitory rate TGI (%)=[1−(Ti−T0)/(Vi−V0)]×100, wherein Ti represents the mean tumor volume of a given treatment group on a certain day; TO represents the mean tumor volume of this treatment group at the beginning of administration; Vi represents the mean tumor volume of the vehicle control group on a certain day (the same day as that in Ti); V0 represents the mean tumor volume of the vehicle control group at the beginning of administration. At the end of the test (d17), the animals were sacrificed, the tumors were stripped and weighed, and the tumor weight inhibitory rates were calculated.

Row | IC50 [1] | SMILES | D 17 TGI [2] | D 17 TV (MEAN ± SD) [2] | Tumor weight [2] | Tumor weight inhibitory rate [2] | inhibitory effect on tumor volume and tumor weight, in words ([2]; combined with irinotecan liposome injection, compared with AZD1390)
1 | 2.79 nM | CC(C)n1c(=O)n(C)c2cnc3cc(F)c(-c4ccc(OCCCN5CCCCC5)nc4)cc3c21 [AZD1390, reference compound] | 60.3% | 342.8 ± 110.6*** mm^3 | 0.32 ± 0.09 g | 45.3% | –
2 | 10.1 nM | Cn1c(=O)n2c3c4c(c(-c5ccc(OCCCN6CCCCC6)nc5)c(F)cc4ncc31)NCC2(C)C [Example A-193, 6-fluoro-2,10,10-trimethyl-7-(6-(3-(piperidin-1-yl)propoxy)pyridin-3-yl)-2,8,9,10-tetrahydro-1H-2,4,8,10a-tetraazanaphtho[2,1,8-cde]azulen-1(2H)-one] | 87.5% | 225.9 ± 69.4***^### mm^3 | 0.24 ± 0.06 g | 60.2% | higher than those of AZD1390
